In experiment [1] the test system is T cell differentiation and function. In words: in vitro and in vivo assay systems designed to measure T cell differentiation and function.
For experiment [2], the system named is Candida albicans. In words: Growth of Candida albicans in C3 H/HeJ mice treated daily i.p. with thymic derivatives. The note with it: for Protection in comparison with control mice: daily i.p. graded doses beginning two days before i.v. challenge with 4×10^4 cells of C. albicans; for C. albicans cell count: average number of organisms in left kidneys of nine mice, days 7, 14 and 21 after infection; for Most active (optimum) daily dose: i.p., resistance to infection with C. albicans; for Potency relative to fraction 5 in ability to induce resistance to infection with C. albicans: ratio of optimum doses. Format: in vivo. The source says: The biological activity of thymosin alpha1 can be determined by utilizing in vivo assays known in the art. Thus, for example, inbred strains of mice are known to vary in their susceptability to infection with C. albicans. Thus, mice of such strains as C3 H/HeJ or CBA/CaJ are highly susceptible to infection, whereas mice of such strains as C57 Bl/10SNJ or C57 Bl/KsJ were highly resistant to challenge. Since resistance to infection with C. albicans is associated with cell-mediated processes, and therefore with T-lymphocytes, thymic hormones should have an effect on the host response.
Thymosin fraction5, alpha1, or alpha11 was injected daily i.p. in graded doses into three different groups of mice, beginning two days before intravenous challenge with 4×10^4 cells of C. albicans.
Mice were treated daily with the indicated doses of thymosin fraction 5,
thymosin α1 or thymosin α11 and challenged with 4
× 10^4 cells of C. albicans two days after the start of
*Three mice from each set were sacrificed on days 7, 14 and 21 after
infection and the values represent the average number of organisms in the
left kidneys of the nine mice in each set.

For experiment [3], the system named is T cell differentiation and function. The note with it: several in vitro and in vivo assay systems; cited from earlier work.

Ends that are not written are not given here.

Regarding “Ac-SDAAVDTSSEITTKDLKEKKEVVEEAENGREAPAN [Thymosin α11]”, the “Biological activity relative to thymosin alpha1” value in experiment [1] is “same quantitative and qualitative biological activity”. Besides, in experiment [2], the “Protection in comparison with control mice” value is on record as “provided protection”. Further, the “C. albicans cell count” value turned out to be 4200 in experiment [2] (dose 80 ng/mouse daily i.p.), 510 in experiment [2] (dose 160 ng/mouse daily i.p.), 320 in experiment [2] (dose 320 ng/mouse daily i.p.) and 1260 in experiment [2] (dose 640 ng/mouse daily i.p.). Also, the “Most active (optimum) daily dose” value in experiment [2] was 160-320 ng per mouse. The “Potency relative to fraction 5 in ability to induce resistance to infection with C. albicans” value in experiment [2] is “about 30 times”.
As to “Thymosin α1: first active peptide isolated and characterized from thymosin fraction 5 (Ac-SDAAVDTSSEITTKDLKEKKEVVEEAEN; ends and bridges not checked; UniProt P06454 2-29, looked up)”, the “Activity relative to fraction 5” value in experiment [3] is “one or more orders of magnitude more active than fraction 5”. For the same substance, the “Protection in comparison with control mice” value in experiment [2] is recorded as “provided protection”. For the same substance, the “C. albicans cell count” value was determined as 5870 in experiment [2] (dose 80 ng/mouse daily i.p.), 190 in experiment [2] (dose 160 ng/mouse daily i.p.), 780 in experiment [2] (dose 320 ng/mouse daily i.p.) and 1410 in experiment [2] (dose 640 ng/mouse daily i.p.). Also, the “Most active (optimum) daily dose” value in experiment [2] is reported as 160-320 ng per mouse. Besides, the “Potency relative to fraction 5 in ability to induce resistance to infection with C. albicans” value in experiment [2] is reported as “about 30 times”.

The values are drawn from patent publication US4614731A, “Peptide having immunopotentiating activity similar to thymosin alpha1” (Hoffmann-La Roche Inc., priority 1985, dated 1986).
